Experimental data from patent US10894036B2, “Use of marizomib for the treatment of central nervous system (CNS) cancers” (Celgene International II Sàrl, priority 2016, dated 2021).

Assay: Phase 1/2 MRZ + BEV and MRZ monotherapy in recurrent G4 MG: adverse events, DLT
[1] = MRZ+BEV, 36 pts, as of 12 Sep. 2016

C[C@@]12OC(=O)[C@]1([C@@H](O)[C@@H]1C=CCCC1)NC(=O)[C@@H]2CCCl [marizomib]
confusional state, marizomib-related adverse events ≥3, patients (MRZ + BEV, N = 36): 3
headache, marizomib-related adverse events ≥3, patients (MRZ + BEV, N = 36): 3
patients with marizomib-related serious adverse events (MRZ + BEV, N = 36): Four
Anaemia: # pts, related to MRZ (MRZ+BEV, 12 Sep. 2016): 6
Anxiety: # pts, related to MRZ (MRZ+BEV, 12 Sep. 2016): 0
Aphasia: # pts, related to MRZ (MRZ+BEV, 12 Sep. 2016): 0
Appendicitis Perforated: # pts, related to MRZ (MRZ+BEV, 12 Sep. 2016): 0
Asthenia: # pts, related to MRZ (MRZ+BEV, 12 Sep. 2016): 0
Ataxia: # pts, related to MRZ (MRZ+BEV, 12 Sep. 2016): 6
Confusional State: # pts, related to MRZ (MRZ+BEV, 12 Sep. 2016): 6
Constipation: # pts, related to MRZ (MRZ+BEV, 12 Sep. 2016): 4
Convulsion: # pts, related to MRZ (MRZ+BEV, 12 Sep. 2016): 0
Delusion: # pts, related to MRZ (MRZ+BEV, 12 Sep. 2016): 1
Depressed Level of Consciousness: # pts, related to MRZ (MRZ+BEV, 12 Sep. 2016): 0
Diarrhoea: # pts, related to MRZ (MRZ+BEV, 12 Sep. 2016): 9
Dizziness: # pts, related to MRZ (MRZ+BEV, 12 Sep. 2016): 8
Dysarthria: # pts, related to MRZ (MRZ+BEV, 12 Sep. 2016): 1
Dysphagia: # pts, related to MRZ (MRZ+BEV, 12 Sep. 2016): 0
Dysphonia: # pts, related to MRZ (MRZ+BEV, 12 Sep. 2016): 0
Dyspnoea: # pts, related to MRZ (MRZ+BEV, 12 Sep. 2016): 0
Ear Infection: # pts, related to MRZ (MRZ+BEV, 12 Sep. 2016): 0
Embolism: # pts, related to MRZ (MRZ+BEV, 12 Sep. 2016): 0
Epistaxis: # pts, related to MRZ (MRZ+BEV, 12 Sep. 2016): 0
Falls: # pts, related to MRZ (MRZ+BEV, 12 Sep. 2016): 3
Fatigue: # pts, related to MRZ (MRZ+BEV, 12 Sep. 2016): 1
Fracture of Femur: # pts, related to MRZ (MRZ+BEV, 12 Sep. 2016): 0
Haemorrhage Intracranial: # pts, related to MRZ (MRZ+BEV, 12 Sep. 2016): 0
Hallucination: # pts, related to MRZ (MRZ+BEV, 12 Sep. 2016): 11
Headache: # pts, related to MRZ (MRZ+BEV, 12 Sep. 2016): 5
Hemiparesis: # pts, related to MRZ (MRZ+BEV, 12 Sep. 2016): 0
Hyperglycemia: # pts, related to MRZ (MRZ+BEV, 12 Sep. 2016): 0
Hypertension: # pts, related to MRZ (MRZ+BEV, 12 Sep. 2016): 0
Hypokalemia: # pts, related to MRZ (MRZ+BEV, 12 Sep. 2016): 0
Hyponatremia: # pts, related to MRZ (MRZ+BEV, 12 Sep. 2016): 1
Hypotension: # pts, related to MRZ (MRZ+BEV, 12 Sep. 2016): 0
Infusion Site Pain: # pts, related to MRZ (MRZ+BEV, 12 Sep. 2016): 6
Insomnia: # pts, related to MRZ (MRZ+BEV, 12 Sep. 2016): 1
Lymphocyte Count Decreased: # pts, related to MRZ (MRZ+BEV, 12 Sep. 2016): 0
Muscular Weakness: # pts, related to MRZ (MRZ+BEV, 12 Sep. 2016): 2
Nausea: # pts, related to MRZ (MRZ+BEV, 12 Sep. 2016): 19
Optic Nerve Disorder: # pts, related to MRZ (MRZ+BEV, 12 Sep. 2016): 0
Pyramidal Tract Syndrome: # pts, related to MRZ (MRZ+BEV, 12 Sep. 2016): 0
Tumor Metastasis: # pts, related to MRZ (MRZ+BEV, 12 Sep. 2016): 0
Vision Blurred: # pts, related to MRZ (MRZ+BEV, 12 Sep. 2016): 3
Vomiting: # pts, related to MRZ (MRZ+BEV, 12 Sep. 2016): 12
Anaemia: # events related to MRZ (MRZ+BEV, 17 May 2016): 9
Aphasia: # events related to MRZ (MRZ+BEV, 17 May 2016): 0
Appendicitis Perforated: # events related to MRZ (MRZ+BEV, 17 May 2016): 0
Asthenia: # events related to MRZ (MRZ+BEV, 17 May 2016): 0
Ataxia: # events related to MRZ (MRZ+BEV, 17 May 2016): 10
Confusional State: # events related to MRZ (MRZ+BEV, 17 May 2016): 8
Constipation: # events related to MRZ (MRZ+BEV, 17 May 2016): 5
Convulsion: # events related to MRZ (MRZ+BEV, 17 May 2016): 0
Delusion: # events related to MRZ (MRZ+BEV, 17 May 2016): 1
Diarrhoea: # events related to MRZ (MRZ+BEV, 17 May 2016): 12
Dizziness: # events related to MRZ (MRZ+BEV, 17 May 2016): 13
Dysarthria: # events related to MRZ (MRZ+BEV, 17 May 2016): 1
Dysphagia: # events related to MRZ (MRZ+BEV, 17 May 2016): 0
Dysphonia: # events related to MRZ (MRZ+BEV, 17 May 2016): 0
Dyspnoea: # events related to MRZ (MRZ+BEV, 17 May 2016): 0
Ear Infection: # events related to MRZ (MRZ+BEV, 17 May 2016): 0
Embolism: # events related to MRZ (MRZ+BEV, 17 May 2016): 0
Epistaxis: # events related to MRZ (MRZ+BEV, 17 May 2016): 0
Fatigue: # events related to MRZ (MRZ+BEV, 17 May 2016): 1
Haemorrhage Intracranial: # events related to MRZ (MRZ+BEV, 17 May 2016): 0
Hallucination: # events related to MRZ (MRZ+BEV, 17 May 2016): 16
Headache: # events related to MRZ (MRZ+BEV, 17 May 2016): 6
Hemiparesis: # events related to MRZ (MRZ+BEV, 17 May 2016): 0
Hyperglycemia: # events related to MRZ (MRZ+BEV, 17 May 2016): 0
Hypertension: # events related to MRZ (MRZ+BEV, 17 May 2016): 0
Hypokalemia: # events related to MRZ (MRZ+BEV, 17 May 2016): 1
Hypotension: # events related to MRZ (MRZ+BEV, 17 May 2016): 0
Insomnia: # events related to MRZ (MRZ+BEV, 17 May 2016): 1
Lymphocyte Count Decreased: # events related to MRZ (MRZ+BEV, 17 May 2016): 0
Muscular Weakness: # events related to MRZ (MRZ+BEV, 17 May 2016): 3
Nausea: # events related to MRZ (MRZ+BEV, 17 May 2016): 36
Pyramidal Tract Syndrome: # events related to MRZ (MRZ+BEV, 17 May 2016): 0
Vomiting: # events related to MRZ (MRZ+BEV, 17 May 2016): 16
Anaemia: # patients, AE related to labelled agent (BEV, MRZ, Both) [1]: 6
Anxiety: # patients, AE related to labelled agent (BEV, MRZ, Both) [1]: 0
Aphasia: # patients, AE related to labelled agent (BEV, MRZ, Both) [1]: 0
Appendicitis Perforated: # patients, AE related to labelled agent (BEV, MRZ, Both) [1]: 0
Asthenia: # patients, AE related to labelled agent (BEV, MRZ, Both) [1]: 0
Ataxia: # patients, AE related to labelled agent (BEV, MRZ, Both) [1]: 6
Confusional State: # patients, AE related to labelled agent (BEV, MRZ, Both) [1]: 6
Constipation: # patients, AE related to labelled agent (BEV, MRZ, Both) [1]: 4
Convulsion: # patients, AE related to labelled agent (BEV, MRZ, Both) [1]: 0
Delusion: # patients, AE related to labelled agent (BEV, MRZ, Both) [1]: 1
Depressed Level of Consciousness: # patients, AE related to labelled agent (BEV, MRZ, Both) [1]: 0
Diarrhoea: # patients, AE related to labelled agent (BEV, MRZ, Both) [1]: 9
Dizziness: # patients, AE related to labelled agent (BEV, MRZ, Both) [1]: 8
Dysarthria: # patients, AE related to labelled agent (BEV, MRZ, Both) [1]: 1
Dysphagia: # patients, AE related to labelled agent (BEV, MRZ, Both) [1]: 0
Dysphonia: # patients, AE related to labelled agent (BEV, MRZ, Both) [1]: 0
Dyspnoea: # patients, AE related to labelled agent (BEV, MRZ, Both) [1]: 0
Ear Infection: # patients, AE related to labelled agent (BEV, MRZ, Both) [1]: 0
Embolism: # patients, AE related to labelled agent (BEV, MRZ, Both) [1]: 0
Epistaxis: # patients, AE related to labelled agent (BEV, MRZ, Both) [1]: 0
Falls: # patients, AE related to labelled agent (BEV, MRZ, Both) [1]: 3
Fatigue: # patients, AE related to labelled agent (BEV, MRZ, Both) [1]: 1
Fracture of Femur: # patients, AE related to labelled agent (BEV, MRZ, Both) [1]: 0
Haemorrhage Intracranial: # patients, AE related to labelled agent (BEV, MRZ, Both) [1]: 0
Hallucination: # patients, AE related to labelled agent (BEV, MRZ, Both) [1]: 11
Headache: # patients, AE related to labelled agent (BEV, MRZ, Both) [1]: 5
Hemiparesis: # patients, AE related to labelled agent (BEV, MRZ, Both) [1]: 0
Hyperglycemia: # patients, AE related to labelled agent (BEV, MRZ, Both) [1]: 0
Hypertension: # patients, AE related to labelled agent (BEV, MRZ, Both) [1]: 0
Hypokalemia: # patients, AE related to labelled agent (BEV, MRZ, Both) [1]: 0
Hyponatremia: # patients, AE related to labelled agent (BEV, MRZ, Both) [1]: 1
Hypotension: # patients, AE related to labelled agent (BEV, MRZ, Both) [1]: 0
Infusion Site Pain: # patients, AE related to labelled agent (BEV, MRZ, Both) [1]: 6
Insomnia: # patients, AE related to labelled agent (BEV, MRZ, Both) [1]: 1
Lymphocyte Count Decreased: # patients, AE related to labelled agent (BEV, MRZ, Both) [1]: 0
Muscular Weakness: # patients, AE related to labelled agent (BEV, MRZ, Both) [1]: 2
Nausea: # patients, AE related to labelled agent (BEV, MRZ, Both) [1]: 19
Optic Nerve Disorder: # patients, AE related to labelled agent (BEV, MRZ, Both) [1]: 0
Pyramidal Tract Syndrome: # patients, AE related to labelled agent (BEV, MRZ, Both) [1]: 0
Tumor Metastasis: # patients, AE related to labelled agent (BEV, MRZ, Both) [1]: 0
Vision Blurred: # patients, AE related to labelled agent (BEV, MRZ, Both) [1]: 3
Vomiting: # patients, AE related to labelled agent (BEV, MRZ, Both) [1]: 12
tolerability (in combination with BEV and as monotherapy): generally well tolerated
